Laboratory results reported in patent US20040259096A1, “Receptor capture assay” (priority 2001, published 2004).

Legend:
AhR [1] = experiment: Receptor capture assay, end-point PCR with anti-DIG time-resolved fluorescence detection, Hepa 1c1c7 cell extract; type: biochemical, murine
Description: End-point PCR may also be utilized for dioxins. Calibrators containing 10, 100, 1000 fmol of 2,3,7,8-tetrachlorodibenzo-p-dioxin (TCDD) were prepared and 1 μl of each calibrator was dispensed into a glass test tube.
An extract from Hepa 1c1c7 cells was prepared as described by Example 1 to provide AhR for the assays. 100 μl NEAT to 0.5 μl of Hepa 1c1c7 cell extract diluted in Assay Buffer was added to each tube, thoroughly mixed, and the tubes were capped, or covered with Parafilm™. The samples were then incubated at room temperature to 37° C. for 30 min to 2 hr. Salt and salmon sperm DNA was then added to the AhR reaction medium in concentrations of 50 mM to 200 mM and 5 to 100 μg/ml, respectively. The samples were then incubated for a period ranging from 0-20 minutes at room temperature. Nucleic acid-tracer (1 nM) was added and mixed gently to allow complex formation between activated AhR and nucleic acid-tracer, where TCCD was present. The reaction tubes were incubated for a time ranging from 10 min to 1 hour, at room temperature.
Capture Strips coated with anti-ARNT antibody were prepared as described in Example 1. An aliquot of AhR reaction medium (25 to 100 μl) from each glass tube was then transferred to a corresponding well of the Capture Strip. The Capture Strips were incubated for an additional 30 min to 1 hour at room temperature, with shaking. Unbound nucleic acid-tracer was rigorously removed by washing wells five times with Wash Buffer B, optionally soaking wells for 30 sec-5 min with wash buffer during each cycle. The strips may be shaken during the soak step if desired. The strips were washed twice with water, with all liquids aspirated at the finish.
The nucleic acid-tracer remaining in the Capture Strip was PCR amplified by the following method: A PCR Master Mix was assembled with the following final concentrations: 1×PCR buffer with 1.5 mM MgCl2, 0.2 mM dATP, dCTP, dGTP, 0.15 mM dTTP, 0.05 mM DIG-dUTP (Roche, Indianapolis, Ind.), 0.5 μM each primer (PRI 1A and PRI 1B), […] Taq polymerase. The Master Mix was aliquoted 30-50 μl per well, then tape applied to seal the wells. The thermocycler profile was: 94° C., 20 sec, 15 cycles of [94° C., 30 sec, 52° C., 30 sec, 72° C. 30 sec], then 72° C., 30 sec and chilled to 4° C.
Ten μl of PCR sample was assayed by ELISA-PCR with anti-DIG detection as follows.
The PCR sample was diluted to 30 μl with water in 0.2 ml tube. The sample was heated 95° C. for 3-5 min. The immobilization (capture) probe was:
The probe was diluted to 10 nM in Hybridization Buffer (0.5× Assay Buffer, 0.5 M NaCl). The probe (100 μl=1 pmol) was then added to the hot samples, mixed, and incubated at 37° C. for 45 min.
The sample was transferred to a pre-washed streptavidin-coated microtiter wells in the form of strips or plates obtained from DELFIA catalog number 4009-0010 (Wallac, Finland) and shaken for 45 min. at room temperature. Strips or plates were washed three times with Wallac Wash Buffer (DELFIA wash concentrate, catalog number 13800865, Wallac, Finland). The Wallac Wash Buffer (1×) for the automated plate washer was made from 25× Wash Concentrate (Wallac), which contains Tris, NaCl, and TWEEN-20.
Anti-DIG antibody (Sigma Chemical Co, St. Louis, Mo.) was diluted 1/1000 in Assay Buffer and 100 μl added to each well, and strips were shaken for 30 min. […] Samples were counted on a Victor 2 multilabel counter/plate reader (catalog number 1420-012, Wallac, Finland) using time-resolved fluorescence. […]

AhR [2] = experiment: Receptor capture assay, real-time PCR, rodent cytosol as source of AhR; type: biochemical
Description: A set of calibrators consisting of 5000, 2500, 1250, […], 313, 156, and 78 parts per trillion (ppt or pg/ml) 2,3,7,8-tetrachlorodibenzo-p-dioxin (TCDD) was prepared in methanol. In addition to TCDD a set of calibrators for AhR agonist, beta-naphthoflavone (BNF) was prepared and analyzed in the assay. Separately, 25 ul of 1:50,000 dilution of 10 uM stock nucleic acid-tracer was added per 1 ml of rodent cytosol, which was the source of AhR, and was aliquoted into glass tubes. The standards were diluted 1:20 into 50-100 ul of rodent cytosol, and incubated for 1-2 hr at room temperature to 37° C. Following incubation, 40 to 100 ul of the reaction was transferred to each well of the antibody-coated Capture Strip and incubated on a shaking platform for 30 min to 1 hr at room temperature. The Capture Strips were washed 5 times with Wash Buffer B, and aspirated; optionally soaking wells for 30 sec-5 min with wash buffer during each cycle. Taqman® Universal PCR Master Mix, primers, and Taqman® probe (Applied Biosystems, Calif.) were added, and adhesive cover applied. PCR was performed and analyzed using an ABI PRISM® 7700, using default settings: 50° C., 2 min, 95° C. 10 min, and 40 cycles of [95° C., 15 sec, 60° C., 60 sec]. A threshold cycle (Ct) was determined for each reaction The Ct represents the PCR cycle at which an increase in reporter fluorescence above baseline signal can first be detected.

AhR [3] = experiment: as above; type: biochemical; details: TCDD 625 ppt

SMILES | DNA signal over DMSO control (AhR [1]; BNF in DMSO added to Hepa 1c1c7 cell extract) | Ct Values (AhR [2]; TCDD 78 ppt) | Ct Values (AhR [2]; TCDD 156 ppt) | Ct Values (AhR [2]; TCDD 313 ppt) | Ct Values (AhR [2]; TCDD 1250 ppt) | Ct Values (AhR [2]; TCDD 2500 ppt) | Ct Values (AhR [2]; TCDD 5000 ppt) | Counts (time-resolved fluorescence) (AhR [1]; TCDD 1 fmol) | Counts (time-resolved fluorescence) (AhR [1]; TCDD 10 fmol) | Counts (time-resolved fluorescence) (AhR [1]; TCDD 100 fmol) | Counts (time-resolved fluorescence) (AhR [1]; TCDD 1000 fmol) | Ct Values (AhR [3])
O=c1cc(-c2ccccc2)oc2ccc3ccccc3c12 [BNF, beta-naphthoflavone] | significantly and reproducibly increased the DNA signal |  |  |  |  |  |  |  |  |  |  | 
Clc1cc2c(cc1Cl)Oc1cc(Cl)c(Cl)cc1O2 [TCDD, 2,3,7,8-tetrachlorodibenzo-p-dioxin] |  | 24.52 | 23.81 | 23.16 | 21.3 | 20.5 | 20.28 | 5770 | 17287 | 100645 | 504879 | 22.23
